Test [1] has as its system PMA-stimulated human neutrophils. In words: HOCl generation by PMA-stimulated neutrophils, oxidation of APF. It is filed as cell-based. Particulars: PMA 160 nM, mean ± SEM. How it is done: APF is a non-fluorescent derivative of fluorescein, which is oxidized by HOCl, ONOO^−, and HO^• [87], in a concentration-dependent manner. Its selectivity was tested using the myeloperoxidase (MPO) inhibitor, 4-aminobenzoic acid hydrazide (ABAH). The addition of ABAH to human neutrophils, stimulated with PMA, decreased the APF-dependent fluorescence signal to the level of the control assay, ruling out the involvement of HO^• and ONOO^− [88]. The previously established methodology for monitoring oxidative burst modulation was adapted. In a 96-well plate, neutrophils (2 × 10^6 cells/mL) were incubated in the dark at 37 °C for 5 min with APF (2 μM) and the tested compounds (10–100 μM) or DMSO (4%). Quercetin (0.3–5.0 μM) and DPI (0.01–10 μM) were used as controls. After incubation, PMA (160 nM) was added, and the fluorescence (excitation at 495 nm and emission at 528 nm) was measured in a microplate reader (Synergy HT, BIO-TEK Instruments, Inc., Winooski, VT, USA). Kinetic readings were initiated immediately after the addition of APF. Obtained values correspond to the slope measured between 5 and 15 min. Effects are expressed as the percentage inhibition of APF oxidation. The results obtained represent at least three independent experiments.
APF is a non-ﬂuorescent derivative of ﬂuorescein, which is oxidized by HOCl, [20] ONOO-, and HO• [21] in a concentration- dependent manner. Its selectivity was tested using the myeloperoxidase (MPO) inhibitor, 4-aminobenzoic acid hydrazide (ABAH). The addition of ABAH to human neutrophils, stimulated with PMA, decreased the APF-dependent ﬂuorescence signal to the level of the control assay, ruling out the involvement of HO• and ONOO− [22]. The previously established methodology for monitoring oxidative burst modulation was adapted. In a 96-well plate, neutrophils (2 x 10^6 cells/mL) were incubated in the dark at 37 °C for 5 minutes with APF (2 µM) and the tested compounds (10 - 100 µM) or DMSO (4%). Quercetin (0.3 - 5.0 µM) and DPI (0.01 - 10 µM) were used as positive and negative controls, respectively. After incubation, PMA (160 nM) was added, and the ﬂuorescence (excitation at 495 nm and emission at 528 nm) was measured in a microplate reader (Synergy HT, BIO-TEK Instruments, Inc., Winooski, VT, USA). Kinetic readings were initiated immediately after the addition of APF. Obtained values correspond to the slope measured between 5 and 15 minutes. Eﬀects are expressed as the percentage inhibition of APF oxidation. The obtained results represent at least three independent experiments. […]
GraphPad Prism 6 software was used to plot the inhibition percentage versus compound concentration curves, enabling the determination of the concentration required to achieve 50% inhibition (IC50). GraphPad Prism 6 software was also used to perform all statistical analyses.
[…] was estimated by applying the one-way analysis (ANOVA), followed by the Bonferroni’s multiple comparisons test. In all cases, p-values < 0.05 were considered statistically signiﬁcant. The results are expressed as mean ± standard error of the mean (SEM).

Test [2] has the same test system. Nature of the test: PMA-induced neutrophils' oxidative burst, oxidation of luminol (chemiluminescence). Format: cell-based. The procedure:
Luminol is easily oxidized by reactive species produced during neutrophils’ oxidative burst, resulting in a chemiluminescent signal. The effect of the compounds under study on the modulation of neutrophil oxidative burst was determined after stimulation with PMA, a known neutrophil activator, because its effect is closely analogous to that obtained during the phagocytic process. Following a previously reported method, in a 96-well plate, neutrophils were incubated in the dark at 37 °C for 5 min with luminol (500 μM) and the tested compounds (10–100 μM) or DMSO (final concentration 4%). Quercetin, a flavonoid known for its anti-inflammatory activity (0.3–5.0 μM), and the inhibitor of NADPH oxidase, DPI (0.01–10 μM), were used as controls. After incubation, PMA (160 nM) was added, and the chemiluminescence was measured in a microplate reader (Synergy HT, BIO-TEK Instruments, Inc., Winooski, VT, USA). Kinetic readings were initiated immediately after cell stimulation. Measurements were taken at the peak of the curve. […] Effects are expressed as the inhibition percentage of luminol oxidation. The results obtained represent at least three independent experiments. […]
3.4 Evaluation of neutrophils' oxidative burst
3.4.1 Oxidation of luminol
Luminol is easily oxidized by reactive species produced during neutrophils’ oxidative burst, resulting in a chemiluminescent signal. The eﬀect of the compounds under study on the modulation of neutrophil oxidative burst was determined after stimulation with PMA, a known neutrophil activator, because its eﬀect is closely analogous to that obtained during the phagocytic process. Following a previously reported method, in a 96-well plate, neutrophils were incubated in the dark at 37 °C for 5 minutes with luminol (500 µM) and the tested compounds (10 - 100 µM) or DMSO (ﬁnal concentration 4%). Quercetin, a ﬂavonoid known for its anti-inﬂammatory activity (0.3 - 5.0 µM), and the inhibitor of NADPH oxidase, DPI (0.01 - 10 µM), were used as positive and negative controls, respectively. After incubation, PMA (160 nM) was added, and the chemiluminescence was measured in a microplate reader (Synergy HT, BIO-TEK Instruments, Inc., Winooski, VT, USA). Kinetic readings were initiated immediately after cell stimulation. Measurements were taken at the […]
peak of the curve. […] Eﬀects are expressed as the inhibition percentage of luminol oxidation. The obtained results represent at least three independent experiments.

With “3-Hydroxy-2-(galactopyranosyl)propyl dodecanoate [Compound 1e]”, in test [1] (at 50 µM), the “APF: highest obtained % of inhibition” value is given as below 20% ^50µM. Further, the IC50 in test [2] (PMA 160 nM, mean ± SEM) was determined as 83 ± 7 µM.

“3-Hydroxy-2-galactopyranosylpropyl dioctyl phosphate [Compound 1b]”: the “APF: highest obtained % of inhibition” value in test [1] (at 25 µM) turned out to be 29 ± 10% ^25µM. For the same compound, the “Luminol: highest obtained % of inhibition” value in test [2] (at 25 µM, PMA 160 nM, mean ± SEM) was 36 ± 9% ^25µM.

Regarding `OCC(CO)OC1OC(CO)C(O)C(O)C1O` [Compound 1a, 2-O-D-(galactopyranosyl)glycerol], the inhibition at 50 µM in test [1] (Homo sapiens, Neutrophil, at 50 µM, read-out: APF: highest obtained % of inhibition) amounted to 27 ± 6%. Besides, the inhibition at 100 µM in test [2] (Homo sapiens, Neutrophil, at 100 µM, PMA 160 nM, mean ± SEM, read-out: Luminol: highest obtained % of inhibition) stood at 34 ± 7%. The “Effect on oxidative burst measured by luminol (in words)” value in test [2] (PMA-induced) is “no relevant activity”.

On to `CCCCCCCCCCCC(=O)OCC(CO)OC1OC(COP(=O)(OCCN)OCCN)C(O)C(O)C1O` (stereo not drawn) [Compound 1h, 2-(6-(bis(2-Aminoethoxy))phosphoryl)galactopyranosyl-3-hydroxypropyl dodecanoate], for which the inhibition at 25 µM is below 20% in test [1] (Homo sapiens, Neutrophil, at 25 µM, read-out: APF: highest obtained % of inhibition) and 27 ± 15% in test [2] (Homo sapiens, Neutrophil, at 25 µM, PMA 160 nM, mean ± SEM, read-out: Luminol: highest obtained % of inhibition).
